Assays:
Format in all cases: cell-based
ovary_SKOV3 tumor cells = test: Cell growth inhibition (CellTiter-Glo), SKOV3; settings: Homo sapiens, SK-OV-3, 72 h, 3 days
Description: Cell growth inhibition was determined via CellTiter-Glo cell viability assays. […] BT474-J4 and HN5C12 were washed with PBS and plated in their culture media without lapatinib. […] ATP levels were determined by adding Cell Titer Glo0 (Promega), incubating for 20 minutes then the luminescent signal was read on the SpectraMax M5 plate with a 0.5 second integration time. Cell growth was calculated relative to vehicle (DMSO) treated control wells. […] y=([…]) where A is the minimum response (ymin), B is the maximum response (ymax), c is the inflection point of the curve (EC50), d is the Hill coefficient, and x is the log10 compound concentration (moles/L). CI values were calculated with the interpolated IC50 values and the mutually non-exclusive equation derived by Chou and […](a)+Db/IC50(b)+(Da×Db)/(IC50(a)×IC50(b)) where IC50(a) is the IC50 of the inhibitor A; IC50(b) is the IC50 for the inhibitor B; […] Excess Over Highest Single Agent (EOHSA) is defined as a statistically significant improvement in the combination compared to the component monotherapies. […] In statistical terms, the maximum of the p-value's for the two comparisons Aq+Br vs Aq and Aq+Br vs Br should be less than or equal to an appropriate cutoff, p≦0.05. EOHSA is a common approach for evaluating drug combinations, and is an FDA criterion (21 CRF 300.50) for combination drug approval. See Borisy et al. (2003) or Hung et al. (1993) for examples and discussion. Analysis was conducted using two-factor analysis of variance with interaction (model terms were dose of drug A, dose of drug B, and interaction between doses of drug A and B), followed by linear contrasts between each combination group and corresponding monotherapies. Analysis was conducted using SAS (version 9, provided by SAS Institute, Cary, N.C.). EOHSA at each dose was calculated as the minimum difference in average % inhibition between the combination and each monotherapy, from the appropriate ANOVA contrast. Since there are many comparisons for the % inhibition endpoint, p-value adjustment for multiple comparisons was performed. Hommel's procedure was implemented in order to improve the power while retaining […] Error Rate (FWE) control by using a sequentially rejective method. The p-values for both synergy and antagonism were calculated using this adjustment.

lung_H1975 tumor cells = test: Cell growth inhibition (CellTiter-Glo), H1975; settings: Homo sapiens, NCI-H1975, 72 h, 3 days
[1] = tested on: NCI-H1993 lung carcinoma cells; test: Cell growth inhibition (CellTiter-Glo), NCI-H1993; settings: Homo sapiens, NCI-H1993, 72 h, 3 days
Description: (§1) Esophageal carcinoma cell line OE33 was purchased from ECACC European Collection of Cell Cultures (UK). Breast cancer cell line JIMT-1 and gastric carcinoma cell line MKN-45 were purchased from Deutsche Sammlung von Mikroorganismen and Zellkulturen GmbH (Germany); KPL-4, a human breast cancer cell line was kindly provided by Prof. J Kurebayashi (Kawasaki Medical School, Kurashiki, Japan). […] The LICR-LON-HN5 head and neck carcinoma cell line (HN5) was a gift from the Institute of Cancer Research, Surrey, U.K. HN5C12 was developed by single-cell cloning of HN5 followed by exposure to increasing concentrations of lapatinib. […] Cell growth inhibition was determined via CellTiter-Glo cell viability assays. […] BT474-J4 and HN5C12 were washed with PBS and plated in their culture media without lapatinib. […] ATP levels were determined by adding Cell Titer Glo0 (Promega), incubating for 20 minutes then the luminescent signal was read on the SpectraMax M5 plate with a 0.5 second integration time. Cell growth was calculated relative to vehicle (DMSO) treated control wells. […] y=([…]) where A is the minimum response (ymin), B is the maximum response (ymax), c is the inflection point of the curve (EC50), d is the Hill coefficient, and x is the log10 compound concentration (moles/L). CI values were calculated with the interpolated IC50 values and the mutually non-exclusive equation derived by Chou and […](a)+Db/IC50(b)+(Da×Db)/(IC50(a)×IC50(b)) where IC50(a) is the IC50 of the inhibitor A; IC50(b) is the IC50 for the inhibitor B; […] Excess Over Highest Single Agent (EOHSA) is defined as a statistically significant improvement in the combination compared to the component monotherapies. […] See Borisy et al. (2003) or Hung et al. (1993) for examples and discussion. Analysis was conducted using two-factor analysis of variance with interaction (model terms were dose of drug A, dose of drug B, and interaction between doses of drug A and B), followed by linear contrasts between each combination group and corresponding monotherapies. Analysis was conducted using SAS (version 9, provided by SAS Institute, Cary, N.C.). EOHSA at each dose was calculated as the minimum difference in average % inhibition between the combination and each monotherapy, from the appropriate ANOVA contrast. Since there are many comparisons for the % inhibition endpoint, p-value adjustment for multiple comparisons was performed. Hommel's procedure was implemented in order to improve the power while retaining […] Error Rate (FWE) control by using a sequentially rejective method. The p-values for both synergy and antagonism were calculated using this adjustment.

[2] = tested on: A431 epidermal carcinoma cells; test: Cell growth inhibition (CellTiter-Glo), A431; settings: Homo sapiens, A-431, 72 h, 3 days
Description: as §1

[3] = tested on: NCI-H596 lung carcinoma cells; test: Cell growth inhibition (CellTiter-Glo), NCI-H596; settings: Homo sapiens, NCI-H596, 72 h, 3 days
Description: as §1

[4] = tested on: SCC12 head and neck squamous cell carcinoma cells; test: Cell growth inhibition (CellTiter-Glo), SCC12; settings: Homo sapiens, SCC12, 72 h, 3 days
Description: as §1

[5] = tested on: NCI-H69 lung carcinoma cells; test: Cell growth inhibition (CellTiter-Glo), NCI-H69; settings: Homo sapiens, NCI-H69, 72 h, 3 days
Description: as §1

[6] = tested on: NCI-H2342 lung carcinoma cells; test: Cell growth inhibition (CellTiter-Glo), NCI-H2342; settings: Homo sapiens, NCI-H2342, 72 h, 3 days
Description: as §1

IC50 (ovary_SKOV3 tumor cells; ovary_SKOV3, +HGF (2 ng/mL)) [µM] | IC50 (ovary_SKOV3 tumor cells; ovary_SKOV3, −HGF) [µM] | IC50 (lung_H1975 tumor cells; lung_H1975, +HGF (2 ng/mL)) [µM] | IC50 (lung_H1975 tumor cells; lung_H1975, −HGF) [µM] | IC50 ([1]; lung_H1993, +HGF (2 ng/mL)) [µM] | IC50 ([1]; lung_H1993, −HGF) [µM] | IC50 ([2]; skin_A431, +HGF (2 ng/mL)) [µM] | IC50 ([2]; skin_A431, −HGF) [µM] | IC50 ([3]; lung_H596, +HGF (2 ng/mL)) [µM] | IC50 ([3]; lung_H596, −HGF) [µM] | IC50 ([4]; hn_SCC12, +HGF (2 ng/mL)) [µM] | IC50 ([4]; hn_SCC12, −HGF) [µM] | IC50 ([5]; lung_H69, +HGF (2 ng/mL)) [µM] | IC50 ([5]; lung_H69, −HGF) [µM] | IC50 ([6]; lung_H2342, +HGF (2 ng/mL)) [µM] | IC50 ([6]; lung_H2342, −HGF) [µM] | SMILES
5.39 | 5.62 | > 10 | > 10 | > 10 | 8.13 | > 10 | 3.22 | > 10 | > 10 | > 10 | > 10 | > 10 | > 10 | > 10 | > 10 | C#Cc1cccc(Nc2ncnc3cc(OCCOC)c(OCCOC)cc23)c1 [Erlotinib, N-(3-ethynylphenyl)-6,7-bis{[2-(methyloxy)ethyl]oxy}-4-quinazolinamine]
5.67 | 5.02 |  |  | > 10 | > 10 | 4.6 | 2.19 | > 10 | > 10 | > 10 | > 10 | 4.74 | 5.36 | 6.64 | 6.81 | CS(=O)(=O)CCNCc1ccc(-c2ccc3ncnc(Nc4ccc(OCc5cccc(F)c5)c(Cl)c4)c3c2)o1 [Lapatinib, N-(3-chloro-4-{[(3-fluorophenyl)methyl]oxy}phenyl)-6-[5-({[2-(methylsulfonyl)ethyl]amino}methyl)-2-furanyl]-4-quinazolinamine]

— patent US20130150363A1, “Method of Treating Cancer Using a cMET and AXL Inhibitor and an ErbB Inhibitor” (GlaxoSmithKline, priority 2008, published 2013)
